Test results published in patent US6407130B1, “Carboxamide-substituted benzimidazoles having tryptase-inhibiting activity” (Boehringer Ingelheim Pharma KG, priority 1999, dated 2002).
Where a name gives a salt, the structure may show the parent alone.

Legend:
rh beta tryptase = biological target: T1, rh beta tryptase (Homo sapiens, UniProt Q15661); assay: tryptase inhibition test (cleavage of N-p-tosyl-Gly-Pro-Lys-para-nitroaniline, p-nitroaniline measured at 405 nm); type: biochemical; settings: Tris HCl buffer pH 7.4 with calcium and heparin; substrate 0.6 mM; 5 minutes' pre-incubation, 5 minutes incubation at 37° C.
T1 construct: purchased Promega
Experimental: The compounds according to the invention are characterised by their tryptase-inhibiting activity. This ability to inhibit tryptase was investigated using the test described as follows. The measurement is carried out in Tris HCl buffer (100 mM), which additionally contains calcium (5 mM) and heparin ([…]), at pH 7.4. The standard used is rh beta tryptase which may be obtained commercially from Promega, for example. The substrate used is N-p-tosyl-Gly-Pro-Lys-para-nitroaniline in a concentration of 0.6 mM. The substrate is digested with tryptase to form p-nitroaniline which can be measured at 405 nm. Usually, an incubation period of 5 minutes and an incubation temperature of 37° C. are chosen. The enzyme activity used is 0.91 U/ml. The measurements are carried out in an Autoanalyser (Cobas Bio) made by Hofmann LaRoche. The potential inhibitory substances are used in concentrations of 10 μM in the screening, the inhibition of the tryptase being given in percent. The IC50 is determined at over 70% inhibition (concentration at which 50% of the enzyme activity is inhibited). After 5 minutes' pre-incubation of the potential inhibitory substances, the substrate is added to start the reaction, the formation of p-nitroaniline being taken as a measurement of the enzyme activity after 5 minutes, after testing the linearity.

T1 sequence (Q15661 31-275): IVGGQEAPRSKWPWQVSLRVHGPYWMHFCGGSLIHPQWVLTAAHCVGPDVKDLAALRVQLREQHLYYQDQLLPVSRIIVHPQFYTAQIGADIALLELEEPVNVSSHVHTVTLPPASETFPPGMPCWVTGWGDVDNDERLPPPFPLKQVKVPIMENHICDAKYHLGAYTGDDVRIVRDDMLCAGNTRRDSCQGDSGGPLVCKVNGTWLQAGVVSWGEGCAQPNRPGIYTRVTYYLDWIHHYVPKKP

In the case of `CC(C)CN(C(=O)CCc1ccc(C(=N)N)cc1)c1ccc2c(c1)nc(CCc1ccc(C(=N)N)cc1)n2C` (as salt: hydrochloride) [Example 5, N-{2-[2-(4-Amidinophenyl)-ethyl]-1-methyl-benzimidazol-5-yl}-N-isobutyl-[3-(4-amidinophenyl)-propionamide]-dihydrochloride], the melting point is reported as > 220 °C.
Molecule `CC(C)CN(C(=O)CCc1ccc(C(=N)N)cc1)c1ccc2c(c1)nc(CCc1ccc(C(=N)N)cc1)n2C` [Example 5, N-{2-[2-(4-Amidinophenyl)-ethyl]-1-methyl-benzimidazol-5-yl}-N-isobutyl-[3-(4-amidinophenyl)-propionamide]-dihydrochloride] has an IC50 (rh beta tryptase) of 0.061 µM.
With `CCN(CC)CC(=O)N(Cc1cccc2ccccc12)c1ccc2c(c1)nc(CCc1ccc(C(=N)N)cc1)n2C` [Example 66, N-{2-[2-(4-Amidinophenyl)-ethyl]-1-methyl-benzimidazol-5-yl}-N-( - naphthylmethyl)-[2-diethylaminoacetamide]-dihydrochloride] the IC50 (rh beta tryptase) was 0.027 µM.
`Cn1c(CCc2ccc(C(=N)N)cc2)nc2cc(N(Cc3ccccc3)C(=O)CCC3CCNCC3)ccc21` [Example 7] gave an IC50 (rh beta tryptase) of 0.108 µM.
For `Cn1c(CCc2ccc(C(=N)N)cc2)nc2cc(N(Cc3cccc4ccccc34)C(=O)CCc3cccc(C(=N)N)c3)ccc21` [Example 19, N-{2-[2-(4-Amidinophenyl)-ethyl]-1-methyl-benzimidazol-5-yl}-N-- naphthylmethyl-[3-(3-amidinophenyl)-propionamide]-dihydrochloride], the IC50 (rh beta tryptase) was 0.016 µM.
With `Cn1c(CCc2ccc(C(=N)N)cc2)nc2cc(N(Cc3cccc4ccccc34)C(=O)CCCc3ccc([N+](=O)[O-])cc3)ccc21` [Example 42, N-{2-[2-(4-Amidinophenyl)-ethyl]-1-methyl-benzimidazol-5-yl}-N-(α-naphthylmethyl)-[4-(4-nitrophenyl)-butyroamide]-hydrochloride] the IC50 (rh beta tryptase) was 0.011 µM.
Molecule `COc1ccccc1N1CCN(CC(=O)N(Cc2cccc3ccccc23)c2ccc3c(c2)nc(CCc2ccc(C(=N)N)cc2)n3C)CC1` [Example 58, N-{2-[2-(4-Amidinophenyl)-ethyl]-1-methyl-benzimidazol-5-yl}-N-( - naphthylmethyl)-[2-(1-(2-methoxyphenyl)-piperazin-4-yl)-acetamide]-dihydrochloride] has an IC50 (rh beta tryptase) of 0.019 µM.
`Cn1c(CCc2ccc(C(=N)N)cc2)nc2cc(N(Cc3cccc4ccccc34)C(=O)CNCc3ccc(O)cc3)ccc21` [Example 52, N-{2-[2-(4-Amidinophenyl)-ethyl]-1-methyl-benzimidazol-5-yl}-N-( - naphthylmethyl)-[2-(4-hydroxybenzylamino)-acetamide]-dihydrochloride] showed an IC50 (rh beta tryptase) of 0.012 µM.
Work on `Cn1c(CCc2ccc(C(=N)N)cc2)nc2cc(N(Cc3ccc(N)cc3)C(=O)CNCc3ccc(N)cc3)ccc21` [Example 73, N-{2-[2-(4-Amidinophenyl)-ethyl]-1-methyl-benzimidazol-5-yl}-N-(4-aminobenzyl)-[2-(4-aminobenzylamino)-acetamide]-dihydrochloride] yielded an IC50 (rh beta tryptase) of 0.0131 µM.
Molecule `Cn1c(CCc2ccc(C(=N)N)cc2)nc2cc(N(Cc3ccc4ccccc4c3)C(=O)CCc3ccc(C(=N)N)cc3)ccc21` [Example 11, N-{2-[2-(4-Amidinophenyl)-ethyl]-1-methyl-benzimidazol-5-yl}-N-β-naphthylmethyl-[3-(4-amidinophenyl)-propionamide]-dihydrochloride] has an IC50 (rh beta tryptase) of 0.015 µM.
`Cn1c(CCc2ccc(C(=N)N)cc2)nc2cc(N(Cc3cccc4ccccc34)C(=O)CCCc3ccc(N)cc3)ccc21` [Example 47, N-{2-[2-(4-Amidinophenyl)-ethyl]-1-methyl-benzimidazol-5-yl}-N-( - naphthylmethyl)-[4-(4-aminophenyl)-butyroamide]-dihydrochloride] showed an IC50 (rh beta tryptase) of 0.012 µM.
Molecule `Cn1c(CCc2ccc(C(=N)N)cc2)nc2cc(N(Cc3cccc4ccccc34)C(=O)CN3CCC(Cc4ccccc4)CC3)ccc21` [Example 70, N-{2-[2-(4-Amidinophenyl)-ethyl]-1-methyl-benzimidazol-5-yl}-N-( - naphthylmethyl)-[2-(4-benzyl-4-piperidin-1-yl)-acetamide]-dihydro-chloride] has an IC50 (rh beta tryptase) of 0.0039 µM.
In the case of `CCOC(=O)C1CCN(CC(=O)N(Cc2cccc3ccccc23)c2ccc3c(c2)nc(CCc2ccc(C(=N)N)cc2)n3C)CC1` [Example 71, N-{2-[2-(4-Amidinophenyl)-ethyl]-1-methyl-benzimidazol-5-yl}-N-( - naphthylmethyl)-[2-(4-ethylcarboxylate-4-piperidin-1-yl)-acetamide]-dihydrochloride], the IC50 (rh beta tryptase) is reported as 0.0159 µM.
`Cn1c(CCc2ccc(C(=N)N)cc2)nc2cc(N(Cc3cccc4ccccc34)C(=O)CNCc3ccc(-c4ccccc4)cc3)ccc21` [Example 45, N-{2-[2-(4-Amidinophenyl)-ethyl]-1-methyl-benzimidazol-5-yl}-N-( - naphthylmethyl)-[2-(4-phenylbenzylamino)-acetamide]-dihydrochloride] showed an IC50 (rh beta tryptase) of 0.012 µM.
With `Cn1c(CCc2ccc(C(=N)N)cc2)nc2cc(NC(=O)C(N)Cc3ccc(C(=N)N)cc3)ccc21` (stereo not drawn) (as salt: hydrochloride) [Example 4, N-{2-[2-(4-Amidinophenyl)-ethyl]-1-methyl-benzimidazol-5-yl}-[2-amino-3-(p-amidinophenyl)-propionic Acid Amide]-trihydrochloride] the melting point was > 260 °C.
`COc1ccc(CNCC(=O)N(Cc2ccc3ccccc3c2)c2ccc3c(c2)nc(CCc2ccc(C(=N)N)cc2)n3C)cc1` [Example 57, N-{2-[2-(4-Amidinophenyl)-ethyl]-1-methyl-benzimidazol-5-yl}-N-(β-naphthylmethyl)-[4-methoxybenzylamino-acetamide]-dihydrochloride] showed an IC50 (rh beta tryptase) of 0.026 µM.
`Cn1c(CCc2ccc(C(=N)N)cc2)nc2cc(N(Cc3ccc4ccccc4c3)C(=O)CCC3CCN(Cc4ccccc4)CC3)ccc21` [Example 50] showed an IC50 (rh beta tryptase) of 0.072 µM.
For `Cn1c(CCc2ccc(C(=N)N)cc2)nc2cc(N(Cc3ccccc3)C(=O)CCc3cccc(C(=N)N)c3)ccc21` [Example 33, N-{2-[2-(4-Amidinophenyl)-ethyl]-1-methyl-benzimidazol-5-yl}-N-benzyl-[3-(3-amidinophenyl)-propionamide]-dihydrochloride], the IC50 (rh beta tryptase) was 0.026 µM.
With `Cn1c(CCc2ccc(C(=N)N)cc2)nc2cc(N(Cc3cccc4ccccc34)C(=O)CNCc3ccncc3)ccc21` [Example 48, N-{2-[2-(4-Amidinophenyl)-ethyl]-1-methyl-benzimidazol-5-yl}-N-( - naphthylmethyl)-[2-(pyridin-4-ylmethylamino)-acctamide]-dihydrochloride] the IC50 (rh beta tryptase) was 0.038 µM.
Molecule `Cn1c(CCc2ccc(C(=N)N)cc2)nc2cc(N(Cc3cccc4ccccc34)C(=O)CNCc3cccc(C(=N)N)c3)ccc21` [Example 8, N-{2-[2-(4-Amidinophenyl)-ethyl]-1-methylbenzimidazol-5-yl}-N-(α-naphthylmethyl)-[3-amidinobenzylaminoacetamide]-trihydrochloride] has an IC50 (rh beta tryptase) of 0.016 µM.
For `Cn1c(CCc2ccc(C(=N)N)cc2)nc2cc(N(Cc3cccc4ccccc34)C(=O)CCCCN)ccc21` [Example 24, N-{2-[2-(4-Amidinophenyl)-ethyl]-1-methyl-benzimidazol-5-yl}-N-( - naphthylmethyl)-[5-amino-pentanoic acid amide]-dihydrochloride], the IC50 (rh beta tryptase) was 0.029 µM.
Molecule `Cn1c(CCc2ccc(C(=N)N)cc2)nc2cc(N(Cc3ccc4ccccc4c3)C(=O)CCc3ccc(C(=N)N)cc3)ccc21` [Example 9, N-{2-[2-(4-Amidinophenyl)-ethyl]-1- -methy-benzimidazol-5-yl}-N-β-naphthylmethyl-[3-(4-amidinophenyl)-propionamide]-dihydrochloride] has an IC50 (rh beta tryptase) of 0.024 µM.
`Cn1c(CCc2ccc(C(=N)N)cc2)nc2cc(N(CCC(c3ccccc3)c3ccccc3)C(=O)CCc3ccc(C(=N)N)cc3)ccc21` [Example 10, N-{2-[2-(4-Amidinophenyl)-ethyl]-1-methyl-benzimidazol-5-yl}-N-(3,3-diphenylpropyl)-[3-(4-amidinophenyl)-propionamide]-dihydrochloride] gave an IC50 (rh beta tryptase) of 0.016 µM.
In the case of `Cn1c(CCc2ccc(C(=N)N)cc2)nc2cc(NC(=O)C(N)Cc3ccc(C(=N)N)cc3)ccc21` (stereo not drawn) [Example 4, N-{2-[2-(4-Amidinophenyl)-ethyl]-1-methyl-benzimidazol-5-yl}-[2-amino-3-(p-amidinophenyl)-propionic Acid Amide]-trihydrochloride], the IC50 (rh beta tryptase) is reported as 0.055 µM.
